From publication PMC13184981, “Discovery and Development of a Potent LIMK2 Isoform-Specific Degrader” (ACS Chemical Biology, 2026)
Blank lines part the entries; values can stand above or below the compound they belong to.

Assays:
[1] = target: T1, LIMK2 (Homo sapiens, UniProt P53671); test: Western blot of endogenous LIMK2 in HuCCT1 cells; format: cell-based; conditions: HuCCT1, 6 h treatment
Experimental: HuCCT1 cell line was cultured in Roswell Park Memorial Institute (RPMI) 1640 medium supplemented with GlutaMAX, 10% fetal bovine serum (FBS), and 1% penicillin/streptomycin. The cell line was maintained in an incubator with 5% CO2 at 37 °C. For the treatment, 3 × 10^5 cells were plated and treated with the compounds and DMSO as the control for 6 h. The cells were then lysed using RIPA buffer (50 mM Tris-HCl pH 7.4, 150 mM NaCl, 1% Triton X-100, 1% NaDOC, 0.1% SDS, 1 mM EDTA), freshly supplemented with protease and phosphatase inhibitor cocktails (Sigma-Aldrich, Darmstadt, Germany). After 1 h incubation on ice, the lysates were centrifuged for 30 min at […], and the protein-containing supernatant was collected. The protein concentrations were determined using Protein Assay Dye Reagent Concentrate (Bradford, Bio-Rad, Hercules, CA, USA) and Pre-Diluted Protein Assay Standards: Bovine Serum Albumin (BSA) Set (Thermo Fisher Scientific, Darmstadt, Germany). Then, equal amounts of protein was mixed with Roti-Load 1 dye (Carl Roth, Karlsruhe, Germany) and 4x Laemmli Buffer (Bio-Rad, Hercules, CA, USA), denatured at 95 °C, and run on NuPAGE 4–12% bis-Tris gels (Thermo Fisher Scientific). Proteins were blotted on methanol-activated PVDF Transfer Membranes (Thermo Fisher Scientific) using the wet transfer method with the transfer buffer (Thermo Fisher Scientific) and 20% methanol. Afterward, the membranes were blocked with 5% milk or 3% BSA in 0.1% TBS-T for 1 h at RT and incubated overnight at 4 °C with primary antibodies: GAPDH (catalog no. 2118, Cell Signaling Technology, MA, USA, 1:1000 dilution), LIMK1 (catalog no. 3842, Cell Signaling Technology, 1:1000 dilution), LIMK2 (catalog no. 3845, 1:500 dilution), phospho-Cofilin (catalog no. 3313, Cell Signaling Technology, 1:1000 dilution), Cofilin (catalog no. 5175, Cell Signaling Technology, 1:1000 dilution). Then, the membranes were washed with 0.1% TBS-T and incubated with secondary horseradish-peroxidase (HRP)-conjugated antibody for 2 h (catalog no. 7074, Cell Signaling Technology, 1:3000 dilution). The membranes were washed again with 0.1% TBS-T before they were developed using X-ray films (Fujifilm, Dusseldorf, Germany).

[2] = target: T2, LIMK1 (Homo sapiens, UniProt P53667); test: Western blot of endogenous LIMK1 in HuCCT1 cells; format: cell-based; conditions: HuCCT1, 6 h treatment
T2 construct: host or cells: HEK293T
T2 sequence (P53667 whole entry): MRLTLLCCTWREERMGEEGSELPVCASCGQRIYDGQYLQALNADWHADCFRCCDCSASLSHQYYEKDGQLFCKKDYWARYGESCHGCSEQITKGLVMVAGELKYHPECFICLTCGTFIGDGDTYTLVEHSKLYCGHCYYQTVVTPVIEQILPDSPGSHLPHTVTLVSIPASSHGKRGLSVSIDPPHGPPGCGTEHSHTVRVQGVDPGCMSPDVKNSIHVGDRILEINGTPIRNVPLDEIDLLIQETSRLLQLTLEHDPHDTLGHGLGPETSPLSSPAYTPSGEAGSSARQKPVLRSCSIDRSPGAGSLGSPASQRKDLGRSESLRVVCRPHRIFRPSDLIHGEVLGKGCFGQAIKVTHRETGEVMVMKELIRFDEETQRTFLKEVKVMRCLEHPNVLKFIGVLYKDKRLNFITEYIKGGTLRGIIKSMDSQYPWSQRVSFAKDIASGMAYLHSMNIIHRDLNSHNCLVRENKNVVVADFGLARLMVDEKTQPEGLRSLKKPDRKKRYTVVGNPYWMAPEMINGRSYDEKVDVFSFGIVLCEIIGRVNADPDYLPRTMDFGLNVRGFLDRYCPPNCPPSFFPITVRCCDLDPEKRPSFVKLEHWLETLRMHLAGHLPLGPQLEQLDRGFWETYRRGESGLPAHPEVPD
Experimental: HuCCT1 cell line was cultured in Roswell Park Memorial Institute (RPMI) 1640 medium supplemented with GlutaMAX, 10% fetal bovine serum (FBS), and 1% penicillin/streptomycin. The cell line was maintained in an incubator with 5% CO2 at 37 °C. For the treatment, 3 × 10^5 cells were plated and treated with the compounds and DMSO as the control for 6 h. The cells were then lysed using RIPA buffer (50 mM Tris-HCl pH 7.4, 150 mM NaCl, 1% Triton X-100, 1% NaDOC, 0.1% SDS, 1 mM EDTA), freshly supplemented with protease and phosphatase inhibitor cocktails (Sigma-Aldrich, Darmstadt, Germany). After 1 h incubation on ice, the lysates were centrifuged for 30 min at […], and the protein-containing supernatant was collected. The protein concentrations were determined using Protein Assay Dye Reagent Concentrate (Bradford, Bio-Rad, Hercules, CA, USA) and Pre-Diluted Protein Assay Standards: Bovine Serum Albumin (BSA) Set (Thermo Fisher Scientific, Darmstadt, Germany). Then, equal amounts of protein was mixed with Roti-Load 1 dye (Carl Roth, Karlsruhe, Germany) and 4x Laemmli Buffer (Bio-Rad, Hercules, CA, USA), denatured at 95 °C, and run on NuPAGE 4–12% bis-Tris gels (Thermo Fisher Scientific). Proteins were blotted on methanol-activated PVDF Transfer Membranes (Thermo Fisher Scientific) using the wet transfer method with the transfer buffer (Thermo Fisher Scientific) and 20% methanol. […]

[3] = target: T3, EGFP–LIMK2 (Homo sapiens, UniProt P53671); test: EGFP-LIMK2 depletion live-cell assay (Incucyte); format: cell-based; conditions: for EGFP–LIMK2 degradation (in words): live cells, over 72 h
T3 construct: P2A remnant (from EGFP-LIMK2-P2A-mCherry; that residues stay on LIMK2 after self-cleavage is own knowledge) (C); expressed in transfected cells; host or cells: HuCCT1 (lentiviral transduction, doxycycline-inducible pCW57 vector)
T3 sequence (P53671 whole entry): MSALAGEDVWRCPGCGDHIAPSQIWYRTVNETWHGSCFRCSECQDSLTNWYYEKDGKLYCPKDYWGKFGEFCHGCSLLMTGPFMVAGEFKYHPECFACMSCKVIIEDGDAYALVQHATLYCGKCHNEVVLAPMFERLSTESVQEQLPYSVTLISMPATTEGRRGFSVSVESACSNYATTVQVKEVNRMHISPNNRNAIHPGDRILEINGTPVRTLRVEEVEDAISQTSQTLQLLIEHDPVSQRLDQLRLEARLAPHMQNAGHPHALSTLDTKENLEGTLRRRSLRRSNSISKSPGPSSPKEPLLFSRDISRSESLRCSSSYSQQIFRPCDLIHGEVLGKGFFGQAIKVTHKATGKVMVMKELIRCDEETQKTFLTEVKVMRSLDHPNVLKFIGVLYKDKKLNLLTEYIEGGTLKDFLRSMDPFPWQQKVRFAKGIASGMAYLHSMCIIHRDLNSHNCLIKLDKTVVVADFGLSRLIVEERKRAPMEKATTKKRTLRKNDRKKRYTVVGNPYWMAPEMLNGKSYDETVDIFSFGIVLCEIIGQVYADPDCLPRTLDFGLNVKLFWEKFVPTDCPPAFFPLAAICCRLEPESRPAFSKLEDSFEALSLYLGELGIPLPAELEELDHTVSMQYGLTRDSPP
Experimental: To enable a more comprehensive and rapid evaluation of the synthesized PROTACs, we generated a stable, doxycycline-inducible HuCCT1 cell line that expressed an N-terminally fused EGFP–LIMK2 protein. […] The degradation activity of the synthesized PROTACs set was screened at five concentrations ranging from 1 nM to 1000 nM over 72 h using live-cell imaging (Figure E).
LIMK2 was cloned into pcDNA5-EGFP-NLS-P2A-mCherry-PTS1 (Addgene plasmid #87803) by replacing the NLS sequence with the LIMK2 sequence. pcDNA5-EGFP-NLS-P2A-mCherry-PTS1 was a gift from Andrea Musacchio. Subsequently, EGFP-[…]-P2A-mCherry was cloned into the lentiviral vector pCW57-MCS1-P2A-MCS2 (Hygro) (Addgene plasmid #80922) to generate pCW57-HygB-EGFP-LIMK2-P2A-mCherry. pCW57-MCS1-P2A-MCS2 (Hygro) was a gift from Adam Karpf.
HEK293T cells (ATCC, CRL-3216) were cultured in Dulbecco’s Modified Eagle’s Medium (DMEM), while HUCCT1 cells (ATCC, CRL-1997) were cultured in RPMI medium supplemented with 10% fetal bovine serum (FBS) and 1% penicillin/streptomycin (P/S) antibiotic mix (all from Sigma-Aldrich, St. Louis, Missouri, USA). Lentiviral particles were produced in HEK293T cells using pCW57-HygB-EGFP-LIMK2-[…]P2A-mCherry, pMD2.G, and psPAX2. HUCCT1 cells were transduced with lentivirus to express LIMK2.
Briefly, the cells were plated and propagated in 6-well plates overnight. The next day, transduction with viruses was performed. Two days later, transduced cells with pCW57-HygB-EGFP-LIMK2-P2A-mCherry plasmids were selected using 100 μg/mL Hygromycin B. After at least three passages, the cells were sorted for the same populations of RFP- and GFP-expressing cells using the SH800S Cell Sorter (Sony Biotechnology, San Jose, CA, USA). Stable pools of cells were maintained in the same medium used for selection.
To assess the turnover of LIMK2, we used the Incucyte S3 or XS5 live-cell imaging system and performed the assay as previously described. , Briefly, 2,000 HUCCT1 cells stably expressing EGFP-LIMK2-P2A-mCherry were seeded per well in a 384-well plate in 50 μL of RPMI medium supplemented with 10% fetal bovine serum (FBS) and 1% penicillin/streptomycin. Cells were incubated for 24 h before treatment. To induce LIMK2 expression, 1 μg/mL of doxycycline (Sigma-Aldrich, D9891–1G) was added at the time of seeding.
After 24 h, 50 μL of medium containing either 0.1% DMSO or the desired concentration of PROTACs was added. Fluorescence in three channels–GFP, RFP, and phase contrast (cell confluence)–was monitored every 2 h for 72 h using the Incucyte S3 or XS5 (Sartorius, Germany). LIMK2 turnover was quantified by calculating the ratio of total fluorescence intensity of RFP to GFP. Each time point represents the average ratio from three technical replicates.

[4] = target: T1, LIMK2; test: NanoBRET cellular target engagement, LIMK2; format: cell-based; design: host or cells: HEK293T; conditions: HEK293T cells, Tracer K10, 2 h; read-out: LIMK2 NanoBRET IC50
Experimental: Gene encoding LIMK1 (Promega, NV3391) and LIMK2 (Promega, NV1531), CRBN (Promega, N2741) proteins cloned in frame with NanoLuc fusion tag at the C-terminus, were transfected into HEK293T cells using FuGENE HD (Promega, E2312) following manufacture’s protocol and proteins were allowed to express for 20 h at 37 °C and 5% CO2. […] The 10 μL of transfected cells after trypsinization and resuspending in Opti-MEM (Life Technologies, 31985070) were dispensed into each well of the 384-well plate (Greiner 781207) at a cell density of 2 × 10^5 cells/mL. For dose–response BRET measurements, compounds at various concentrations, immediately followed by Tracer K10 (Promega, Tracer DB ID: T000008) for LIMK1 and LIMK2, CRBN Tracer (Promega, Tracer DB ID: T000018) for CRBN at an optimum KD concentration chosen from TracerDB (tracerdb.org), were pipetted using an Echo acoustic dispenser (Labcyte). The system was allowed to equilibrate for 2 h at 37 °C and 5% CO2 before BRET measurements. To measure BRET signal, the NanoBRET NanoGlo Substrate (Promega, N1573) was added as per the manufacturer’s protocol, and filtered luminescence was measured on a PHERAstar plate reader (BMG Labtech) equipped with a luminescence filter pair (450 nm BP filter (donor) and 610 nm LP filter (acceptor)). For lysed NanoBRET measurement, 25 nL of Digitonin (0.05 μg/μL) was pipetted to each well using Labcyte, and the plate was incubated for 5 min at 37 °C and 5% CO2. After incubation, the BRET signals were measured by a PHERAstar plate reader following the same procedure as intact NanoBRET measurement. […] The BRET ratios are normalized to both of them in the prism output data file. Competitive displacement data were then normalized to controls and were graphed using GraphPad Prism 9 software employing a normalized 3-parameter curve fit with the following equation: Y = 100/(1 + 10̂(X – logIC50)).

[5] = target: VHL:ELOB:ELOC (Homo sapiens, UniProt P40337); test: SPR VHL binary complex affinity and kinetics; format: binding; conditions: read-out: binary affinity toward VHL
Sequence of VHL:ELOB:ELOC (P40337 54-213 limits assumed, species assumed): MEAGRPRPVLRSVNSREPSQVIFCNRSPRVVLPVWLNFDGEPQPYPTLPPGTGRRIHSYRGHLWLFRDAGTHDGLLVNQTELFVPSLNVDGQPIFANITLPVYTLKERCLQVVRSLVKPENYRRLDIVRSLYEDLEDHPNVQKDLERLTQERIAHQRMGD
Sequence of VHL:ELOB:ELOC (Q15370 whole entry partner, species assumed): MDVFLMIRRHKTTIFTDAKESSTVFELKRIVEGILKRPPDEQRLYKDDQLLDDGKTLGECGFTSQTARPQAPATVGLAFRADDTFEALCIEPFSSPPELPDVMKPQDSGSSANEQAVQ
Sequence of VHL:ELOB:ELOC (Q15369 17-112 partner limits assumed, species assumed): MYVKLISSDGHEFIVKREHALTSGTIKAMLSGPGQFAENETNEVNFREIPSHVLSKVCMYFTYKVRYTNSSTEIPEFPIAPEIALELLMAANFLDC
Experimental: (§1) Approximately 1000 RU of biotinylated VHL:ELOB:ELOC was loaded onto a Series S CM5 chip coated with Streptavidin. All experiments were performed at 25 °C. The chip was equilibrated with a running buffer containing 20 mM HEPES, pH 7.4, 150 mM NaCl, 0.5 mM TCEP, 1% BSA, and 0.05% Tween 20.
To assess ternary complex formation, 1 μM of VHL-binding PROTAC was preincubated with a 2-fold molar excess of LIMK1 to promote binary complex formation and minimize the hook effect. The resulting binary complex was injected over the immobilized VHL:ELOB:ELOC surface at a flow rate of 30 μL/min for 60 s, followed by a dissociation phase of 180 s. An increase in resonance signal relative to the binary complex alone was used as an indicator of ternary complex formation. In separate experiments, binary and ternary complex affinities were measured and compared using serial dilutions as described for LIMK1. Additionally, the association rate constant (k a), dissociation rate constant (k d) were determined for the binary complexes.

[6] = target: T4, VHL:ELOB:ELOC and LIMK1 kinase domain (Homo sapiens, UniProt P40337+P53667); test: SPR VHL ternary complex formation with LIMK1; format: binding
T4 construct: (330–S637), LIMK1-avi; 6xHis-Z-tag (TEV-cleavable) (N, cleaved yes); made in house; host or cells: LIMK1: insect cells (baculovirus)
T4 sequence (P40337 54-213 limits assumed, species assumed): as the sequence (P40337 54-213 limits assumed, species assumed) above
T4 sequence (Q15370 whole entry partner, species assumed, the tested form may be a part): as the sequence (Q15370 whole entry partner, species assumed) above
T4 sequence (Q15369 17-112 partner limits assumed, species assumed): as the sequence (Q15369 17-112 partner limits assumed, species assumed) above
T4 sequence (P53667 330-637 limits assumed, species assumed): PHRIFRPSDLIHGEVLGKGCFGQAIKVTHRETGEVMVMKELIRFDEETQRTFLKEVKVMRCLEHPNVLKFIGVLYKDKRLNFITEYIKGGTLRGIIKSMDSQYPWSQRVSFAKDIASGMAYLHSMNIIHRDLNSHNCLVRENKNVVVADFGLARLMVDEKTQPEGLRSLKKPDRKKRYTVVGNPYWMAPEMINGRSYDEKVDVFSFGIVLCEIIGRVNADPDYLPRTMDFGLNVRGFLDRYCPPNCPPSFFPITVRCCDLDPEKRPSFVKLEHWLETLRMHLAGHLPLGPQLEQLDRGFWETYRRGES
Experimental: Surprised by the weak target engagement of VHL-based LIMK PROTACs, we investigated whether they form a stable ternary complex. To address this, we established an SPR-based ternary complex assay using immobilized VHL:ELOB/C complex on an SPR chip. In this assay format, the binary complex was formed by preincubating PROTACs with a 2-fold excess of purified LIMK1 kinase domain to avoid the hook effect. The binary complex was passed over an SPR surface immobilized with the VHL:ELOB/C complex. Ternary complex formation was detected as a large signal increase, as expected for the large molecular weight increase upon binding of the LIMK1 PROTAC complex (Figure C).
as §1
To assess ternary complex formation, 1 μM of VHL-binding PROTAC was preincubated with a 2-fold molar excess of LIMK1 to promote binary complex formation and minimize the hook effect. […] In separate experiments, binary and ternary complex affinities were measured and compared using serial dilutions as described for LIMK1. Additionally, the association rate constant (k a), dissociation rate constant (k d) were determined for the binary complexes.

[7] = tested on: HEK293T cells; test: CellTiter-Glo 2.0 cell viability assay; format: cell-based, human; conditions: 24-h treatment, 25 nM to 20 µM
Experimental: The effects of the PROTAC on cell viability were determined using the CellTiter-Glo 2.0 Cell Viability Assay (Promega, G9241) following the manufacturer’s protocol. […] 40 μL of assay reagent was added and incubated for 10 min at RT. Filtered luminescence was measured using a PHERAstar plate reader (BMG Labtech), and data were analyzed using GraphPad Prism 9.

T1 sequence (P53671 whole entry): as the sequence (P53671 whole entry) above

SMILES: O=C1CCC(N2C(=O)c3cccc(OCc4cn(CC(=O)Nc5ncc(-c6cc(C(F)F)nn6-c6c(Cl)cccc6Cl)s5)nn4)c3C2=O)C(=O)N1 (stereo not drawn) [21a]
- LIMK2 degradation (Western blot) [1]: did not degrade either isoform
- LIMK1 degradation (Western blot) [2]: did not degrade either isoform

SMILES: Cc1c(OCc2cn(CCCCCC(=O)Nc3ncc(-c4cc(C(F)F)nn4-c4c(Cl)cccc4Cl)s3)nn2)cccc1N1CCC(=O)NC1=O [22c]
- DC50 ([3]; HuCCT1 EGFP–LIMK2 cells, live-cell kinetic assay over 72 h, read-out: DC50 (LIMK2 degradation)): 13.7 nM
- potency enhancement (DC50) relative to 21b ([3]; vs 21b): 2.4 fold
- IC50 [4]: 80 nM

SMILES: Cc1ncc(-c2ccc(CNC(=O)[C@@H]3C[C@@H](O)CN3C(=O)[C@@H](NC(=O)c3cn(CCCCCC(=O)Nc4ncc(-c5cc(C(F)F)nn5-c5c(Cl)cccc5Cl)s4)nn3)C(C)(C)C)cc2)s1 [23c]
- EGFP–LIMK2 degradation (in words) [3]: moderate LIMK2 degradation
- LIMK2 degradation (Western blot) [1]: modest LIMK2 degradation at 1 μM

SMILES: Cc1ncc(-c2ccc(CNC(=O)[C@@H]3C[C@@H](O)CN3C(=O)[C@@H](NC(=O)CCc3cn(CCCCCC(=O)Nc4ncc(-c5cc(C(F)F)nn5-c5c(Cl)cccc5Cl)s4)nn3)C(C)(C)C)cc2)s1 [23f]
- Kd [5]: > 1000 nM

More lines, main results first:

- Kd [5]: > 1000 nM
- higher affinity upon formation of ternary complex vs binary [6]: 10 fold
SMILES: Cc1ncc(-c2ccc(CNC(=O)[C@@H]3C[C@@H](O)CN3C(=O)[C@@H](NC(=O)CCCc3cn(CCCCC(=O)Nc4ncc(-c5cc(C(F)F)nn5-c5c(Cl)cccc5Cl)s4)nn3)C(C)(C)C)cc2)s1 [23h]

- Kd [5]: > 1000 nM
- higher affinity upon formation of ternary complex vs binary [6]: 10 fold
SMILES: Cc1ncc(-c2ccc(CNC(=O)[C@@H]3C[C@@H](O)CN3C(=O)[C@@H](NC(=O)CCCc3cn(CCCCCC(=O)Nc4ncc(-c5cc(C(F)F)nn5-c5c(Cl)cccc5Cl)s4)nn3)C(C)(C)C)cc2)s1 [23i]

- EGFP–LIMK2 degradation (in words) [3]: no degradation of LIMK2
- LIMK2 degradation (Western blot) [1]: did not induce any LIMK2 degradation
SMILES: Cc1c(OCc2cn(CCCCC(=O)Nc3ncc(-c4cc(C(F)F)nn4-c4c(Cl)cccc4Cl)s3)nn2)cccc1N1CCC(=O)N(C)C1=O [THNAN69-NC]
- cytotoxic effects [7]: no cytotoxic effects
